Measurements published in article PMC7884259 (Journal of medicinal chemistry, 2020).
Changes are numbered by the printed parent chain. Like-named read-outs stand apart in the source and are kept apart here. Where no end group is shown, it is not given here.

Experiments:
[1] = molecular target: T1, ATAD2Bshort bromodomain (lacks residues 988–992, VDIEE) (Homo sapiens, UniProt Q9ULI0, DEL988-992); test: ITC binding to the ATAD2Bshort splice variant bromodomain; conditions: ITC at 5 °C, 20 mM NaH2PO4 pH 7.0, 150 mM NaCl; no binding in duplicate
T1 sequence (Q9ULI0 953-1080 isoform Q9ULI0-2): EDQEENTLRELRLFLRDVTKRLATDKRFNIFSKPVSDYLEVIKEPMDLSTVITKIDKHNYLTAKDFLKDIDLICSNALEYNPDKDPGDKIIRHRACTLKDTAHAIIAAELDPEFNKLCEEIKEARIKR

[2] = molecular target: ATAD2 bromodomain; conditions: cited from earlier work
[3] = molecular target: T2, ATAD2B bromodomain Y995A (Homo sapiens, UniProt Q9ULI0, Y995A); test: ITC binding to the ATAD2B bromodomain mutant Y995A; conditions: ITC at 5 °C, 20 mM NaH2PO4 pH 7.0, 150 mM NaCl; no binding in duplicate
T2 sequence (Q9ULI0 953-1085 Y995A): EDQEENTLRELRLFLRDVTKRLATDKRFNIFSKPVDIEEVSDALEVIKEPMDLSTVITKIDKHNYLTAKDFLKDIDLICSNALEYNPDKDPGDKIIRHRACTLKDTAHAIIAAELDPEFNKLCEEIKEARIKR

[4] = molecular target: T3, ATAD2B bromodomain Y1037A (Homo sapiens, UniProt Q9ULI0, Y1037A); test: ITC binding to the ATAD2B bromodomain mutant Y1037A; conditions: ITC at 5 °C, 20 mM NaH2PO4 pH 7.0, 150 mM NaCl; no binding in duplicate
T3 sequence (Q9ULI0 953-1085 Y1037A): T2 sequence (Q9ULI0 953-1085 Y995A) with A43Y, Y85A

[5] = molecular target: T4, ATAD2B bromodomain (Homo sapiens, UniProt Q9ULI0); test: ITC binding to the wild-type ATAD2B bromodomain
T4 sequence (Q9ULI0 953-1085): T2 sequence (Q9ULI0 953-1085 Y995A) with A43Y

[6] = system: ATAD2 bromodomain; conditions: time-resolved fluorescence energy transfer; cited from earlier work

Compound	Dissociation constant, ATAD2Bshort bromodomain [1]	Dissociation constant, Y995A ATAD2B bromodomain [3]	Dissociation constant, Y1037A ATAD2B bromodomain [4]	further results
8-(((3R,4R)-3-((1,1-dioxidotetrahydro-2H-thiopyran-4-yl)-methoxy)-piperidin-4-yl)amino)-3-methyl-5-(5-methylpyridin-3-yl)-1,7-naphthyridin-2(1H)-one [compound 38, reference compound]	no binding			Kd ([2]; read-out: ATAD2 reported KDs (binding affinity)): 0.09 µM
CC(=O)NCCCC[C@H](NC(=O)CNC(=O)[C@H](CC(C)C)NC(=O)CNC(=O)[C@H](CCCCN)NC(=O)CNC(=O)CNC(=O)[C@H](CCCCN)NC(=O)CN)C(=O)NCC(=O)NCC(=O)N[C@@H](C)C(=O)N[C@@H](CCCCN)C(=O)N[C@@H](CCCNC(=N)N)C(N)=O [H4K12ac (res 4–17)]	no binding	no binding	no binding	Kd ([2]; read-out: ATAD2 reported KDs, value is for the H4K12ac res 1–25 peptide): 2.5 µM; Kd [5]: 50.5 ± 5.8 µM
GKGGKGLGKGGAKRHRK [H4 unmodified (res 4–17)]	no binding	no binding	no binding	
H4K5acK8acK12acK16ac (1–25): tetra-acetylated histone H4 residues 1–25 peptide of the cited TR-FRET assay				recognition by the ATAD2 bromodomain in TR-FRET [6]: recognizes
H4K5acK12ac (1–25): diacetylated histone H4 residues 1–25 peptide of the cited TR-FRET assay				recognition by the ATAD2 bromodomain in TR-FRET [6]: recognizes
LGK(Ac)GGAK(Ac)RHRK-NH2 [H4K12acK16ac (res 10–20)]				Kd [5]: 214 ± 7 µM
RKSTGG(Kac)APRKQ [H3K14ac (res 8–19)]				ATAD2 reported KDs ([2]; result is for the H3K14ac res 1–21 peptide): no binding (res 1–21)[14]
SGRGK(Ac)GGK(Ac)GL-NH2 [H4K5acK8ac (res 1–10)]	no binding	no binding	no binding	
SGRGK(Ac)GGKGL-NH2 [H4K5ac (res 1–10)]	no binding	no binding	no binding	Kd ([2]; read-out: ATAD2 reported KDs, value is for the H4K5ac res 1–20 peptide): 22 µM
SGRGK(Ac)QGGKARA-NH2 [H2AK5ac (res 1–12)]	no binding	no binding	no binding	
SGRGKGGK(Ac)GL-NH2 [H4K8ac (res 1–10)]				ATAD2 reported KDs (no KD available, interaction only) ([2]; qualitative): NA, interaction shown[16]
